{"source": "paper PMC6628435", "about": "“Chemical Synthesis, Proper Folding, Nav Channel Selectivity Profile and Analgesic Properties of the Spider Peptide Phlotoxin 1” (Toxins, 2019)", "target": "T1, hNav1.6 (Homo sapiens, UniProt Q9UQD0)", "T1 construct": "expressed in transfected cells; host or cells: HEK293 cells", "T1 sequence (Q9UQD0 whole entry)": "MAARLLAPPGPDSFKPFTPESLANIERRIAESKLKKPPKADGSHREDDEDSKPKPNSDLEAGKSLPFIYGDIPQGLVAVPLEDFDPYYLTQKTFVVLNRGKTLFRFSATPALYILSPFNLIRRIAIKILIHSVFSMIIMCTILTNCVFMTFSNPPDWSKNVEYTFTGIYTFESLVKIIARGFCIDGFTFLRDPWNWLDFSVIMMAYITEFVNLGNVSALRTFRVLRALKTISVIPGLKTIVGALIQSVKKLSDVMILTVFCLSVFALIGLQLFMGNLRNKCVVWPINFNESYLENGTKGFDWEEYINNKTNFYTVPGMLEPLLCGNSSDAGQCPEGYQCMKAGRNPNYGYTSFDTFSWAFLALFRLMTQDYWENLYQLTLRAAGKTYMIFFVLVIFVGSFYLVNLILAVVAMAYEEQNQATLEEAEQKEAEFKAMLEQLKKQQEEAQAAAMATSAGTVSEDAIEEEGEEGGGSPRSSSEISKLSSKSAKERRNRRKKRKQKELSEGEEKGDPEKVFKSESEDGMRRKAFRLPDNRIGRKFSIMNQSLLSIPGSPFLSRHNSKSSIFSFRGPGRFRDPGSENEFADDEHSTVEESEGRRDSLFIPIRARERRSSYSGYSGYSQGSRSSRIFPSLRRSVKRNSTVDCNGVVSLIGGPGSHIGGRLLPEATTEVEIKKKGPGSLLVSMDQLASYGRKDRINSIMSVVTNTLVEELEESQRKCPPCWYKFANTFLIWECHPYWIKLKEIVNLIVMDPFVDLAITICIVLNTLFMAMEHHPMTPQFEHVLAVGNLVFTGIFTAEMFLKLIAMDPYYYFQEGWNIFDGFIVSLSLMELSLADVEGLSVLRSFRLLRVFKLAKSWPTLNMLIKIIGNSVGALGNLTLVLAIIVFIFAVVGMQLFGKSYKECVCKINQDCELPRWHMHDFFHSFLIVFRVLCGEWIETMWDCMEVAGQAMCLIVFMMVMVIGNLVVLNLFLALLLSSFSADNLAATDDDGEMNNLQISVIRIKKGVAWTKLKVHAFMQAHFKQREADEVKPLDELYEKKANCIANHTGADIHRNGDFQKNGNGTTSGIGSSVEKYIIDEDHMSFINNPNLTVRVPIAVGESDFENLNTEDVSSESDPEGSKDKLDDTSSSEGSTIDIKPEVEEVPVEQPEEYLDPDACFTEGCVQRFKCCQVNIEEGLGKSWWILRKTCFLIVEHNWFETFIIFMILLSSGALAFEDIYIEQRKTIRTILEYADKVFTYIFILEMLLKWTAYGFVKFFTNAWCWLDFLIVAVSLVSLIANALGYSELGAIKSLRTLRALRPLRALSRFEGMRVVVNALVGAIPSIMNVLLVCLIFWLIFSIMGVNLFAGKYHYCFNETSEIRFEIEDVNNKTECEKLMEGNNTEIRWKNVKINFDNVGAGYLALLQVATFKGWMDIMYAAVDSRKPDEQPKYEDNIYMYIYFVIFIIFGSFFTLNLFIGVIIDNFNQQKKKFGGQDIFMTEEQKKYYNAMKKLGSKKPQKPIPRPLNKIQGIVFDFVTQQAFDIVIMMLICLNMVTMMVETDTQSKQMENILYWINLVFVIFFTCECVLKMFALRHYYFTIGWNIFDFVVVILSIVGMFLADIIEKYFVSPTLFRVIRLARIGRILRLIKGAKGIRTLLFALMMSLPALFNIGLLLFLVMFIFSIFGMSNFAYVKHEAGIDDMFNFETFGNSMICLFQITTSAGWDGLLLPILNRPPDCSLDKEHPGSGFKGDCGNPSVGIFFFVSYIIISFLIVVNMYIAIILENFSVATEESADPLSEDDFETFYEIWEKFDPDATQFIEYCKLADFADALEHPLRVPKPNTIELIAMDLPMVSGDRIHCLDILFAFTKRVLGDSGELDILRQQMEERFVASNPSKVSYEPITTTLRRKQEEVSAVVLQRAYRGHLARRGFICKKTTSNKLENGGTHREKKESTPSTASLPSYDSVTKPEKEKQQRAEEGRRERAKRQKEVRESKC", "assay": "Automated patch-clamp dose-response on hNav1.6 expressed in HEK293 cells", "assay_type": "cell-based", "conditions": "15 to 23 cells per concentration, read-out: calculated IC50", "excerpt": "Following our initial screen for the selectivity of synthetic PhlTx1 and the discovery that Nav1.7 was the main target, we decided to further evaluate the activity of PhlTx1. We used a CHO mammalian cell line expressing the human Nav1.7 instead of Xenopus oocytes for the pharmacological evaluation. To this end, we used an automated patch-clamp system, the Nanion syncropatch 384PE, and a standardized robotic method from Beckmann to apply PhlTx1 in the recording chambers and collect the kinetic information of Nav1.7 current from a high number of Nav1.7-expressing cells. The syncropatch 384PE has the potential to record from 384 cells at a time. 100-ms pulses from −100 mV to −10 mV were applied at a frequency of 0.2 Hz and various concentrations of PhlTx1 were applied to the cells. An example of a Nav1.7 current recording is illustrated in Figure 6A along with the effect of 100 nM PhlTx1. […]\nPhlTx1 and other Nav1.7-acting toxins were investigated on CHO cells expressing the human Nav1.7 channel using the Automated patch-clamp system from Nanion (München, Germany), the SyncroPatch 384PE. […] Percentages of current inhibitions were measured at the end of a 12- to 15-min application time (12-min for fast blocking toxins; 15-min for slow blocking ones). […]", "note": "Bridge positions count the residues as written; N and C are the ends. Peptide text beside a SMILES is read from it.", "data": [{"molecule": "CC(C)C[C@@H]1NC(=O)[C@@H](NC(=O)[C@H](C)N)CSSC[C@@H]2NC(=O)[C@@H]3CSSC[C@@H](C(=O)N[C@@H](CCCNC(=N)N)C(=O)N[C@@H](Cc4ccc(O)cc4)C(=O)N[C@@H](CCCCN)C(=O)N[C@@H](CC(C)C)C(=O)N[C@@H](Cc4ccccc4)C(=O)O)NC(=O)[C@H](Cc4c[nH]c5ccccc45)NC(=O)[C@@H]4CCCN4C(=O)[C@H](Cc4ccc(O)cc4)NC(=O)[C@H](CCCCN)NC(=O)[C@H](Cc4c[nH]c5ccccc45)NC(=O)[C@H](CCC(=O)O)NC(=O)[C@H](CSSC[C@H](NC(=O)[C@H](CO)NC(=O)[C@H](CC(=O)O)NC(=O)[C@H](Cc4c[nH]c5ccccc45)NC(=O)[C@H](CCC(N)=O)NC(=O)CNC1=O)C(=O)N[C@@H](CC(=O)O)C(=O)N1CCC[C@H]1C(=O)N[C@@H](CCCCN)C(=O)N[C@@H](C)C(=O)N[C@@H](CO)C(=O)N[C@@H](CCCCN)C(=O)N3)NC(=O)[C@H](C)NC(=O)[C@H](Cc1ccc(O)cc1)NC(=O)[C@H](CC(N)=O)NC(=O)[C@@H]1CCCN1C2=O", "note": "[PhlTx1, Phlotoxin-1] (H-ACLGQWDSCDPKASKCCPNYACEWKYPWCRYKLF-OH; disulfide 2-17, 9-22, 16-29; N-terminus and C-terminus assumed)", "values": [{"measurement": "IC50", "value": "> 3", "unit": "µM"}]}]}
